Several values for one entry are separate records, joined by “and”; a condition that tells them apart may be missing. Identical values can stand only once. Toxic doses and inconclusive results are not listed.

The values below come from PubChem BioAssay AID328 (DTP/NCI, 2004).

The subject of the assay is BDF1 mice, P388 leukemia ip, median survival T/C. Description: NCI In Vivo Anticancer Drug Screen. Data for tumor model P388 Leukemia (intraperitoneal) in B6D2F1 (BDF1) mice. Conditions: endpoint: median survival time, higher = longer survival. An outline of the steps:
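Steps: implant the tumour, treat one group with compound and another with vehicle, record survival, then divide treated by control.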

[1] abbreviates: dose: 100.0 mg/kg/injection, schedule: Q01DX009 (ip), vehicle: saline with Tween-80.
[2] abbreviates: dose: 200.0 mg/kg/injection, schedule: Q01DX009 (ip), vehicle: saline with Tween-80.
Where [3] appears, read: dose: 400.0 mg/kg/injection, schedule: Q01DX009 (ip), vehicle: saline with Tween-80.
Where [4] appears, read: dose: 50.0 mg/kg/injection, schedule: Q01DX009 (ip), vehicle: saline with Tween-80.
Where [5] appears, read: dose: 12.5 mg/kg/injection, schedule: Q01DX010 (ip), vehicle: saline.
The mark [6] stands for this setting: dose: 100.0 mg/kg/injection, schedule: Q04DX003 (ip), vehicle: saline with Tween-80.
The mark [7] stands for this setting: dose: 200.0 mg/kg/injection, schedule: Q04DX003 (ip), vehicle: saline with Tween-80.
[8] abbreviates: dose: 400.0 mg/kg/injection, schedule: Q04DX003 (ip), vehicle: saline with Tween-80.

Regarding `CN[C@H]1CC[C@]23C[C@]24CC[C@]2(C)[C@@H]([C@H](C)N(C)C)CC[C@@]2(C)[C@@H]4CC[C@H]3C1(C)C`, the T/C was 90 % of control (dose: 2.6 mg/kg/injection, schedule: Q01DX010 (ip), vehicle: saline); 100 % of control (dose: 4.0 mg/kg/injection, schedule: Q01DX010 (ip), vehicle: saline); 118 % of control (dose: 6.6 mg/kg/injection, schedule: Q01DX010 (ip), vehicle: saline); 100 % of control (dose: 8.8 mg/kg/injection, schedule: Q01DX010 (ip), vehicle: carboxymethylcellulose (CMC)); 100 % of control (dose: 10.0 mg/kg/injection, schedule: Q01DX010 (ip), vehicle: saline); 105 % of control (dose: 13.3 mg/kg/injection, schedule: Q01DX010 (ip), vehicle: carboxymethylcellulose (CMC)). Besides, the T/C is, setting by setting: (dose: 16.0 mg/kg/injection, schedule: Q01DX010 (ip), vehicle: saline) 113 % of control; (dose: 20.0 mg/kg/injection, schedule: Q01DX010 (ip), vehicle: carboxymethylcellulose (CMC)) 115 % of control; (dose: 26.0 mg/kg/injection, schedule: Q01DX010 (ip), vehicle: saline) 90 % of control; (dose: 30.0 mg/kg/injection, schedule: Q01DX010 (ip), vehicle: carboxymethylcellulose (CMC)) 94 % of control; (dose: 45.0 mg/kg/injection, schedule: Q01DX010 (ip), vehicle: carboxymethylcellulose (CMC)) 94 % of control.

Consider `CCN(CC)CCNC(=S)N/N=C(C)\C(C)=N/NC(=S)NCCN(CC)CC`, for which the T/C by setting is: (dose: 6.25 mg/kg/injection, schedule: Q01DX009 (ip), vehicle: saline) 105 % of control; (dose: 12.5 mg/kg/injection, schedule: Q01DX009 (ip), vehicle: saline) 105 % of control.

`CC(=O)CC(=O)NC1CCCCC1`: the T/C runs as follows: under setting [1], 100 % of control; under setting [2], 100 % of control; under setting [3], 100 % of control.

Regarding `CCOC(=O)Nc1ccc(/C=C\c2ccnc3ccccc23)cc1`, the T/C is 106 % of control (dose: 12.5 mg/kg/injection, schedule: Q01DX009 (ip), vehicle: saline with Tween-80); 115 % of control (dose: 25.0 mg/kg/injection, schedule: Q01DX009 (ip), vehicle: saline with Tween-80); 92 % of control and 94 % of control under setting [4].

`CN(C)CCCn1c(=O)c2ccccc2c2ccccc21`: the T/C reads like this: under setting [5], 90 % of control; (dose: 25.0 mg/kg/injection, schedule: Q01DX010 (ip), vehicle: saline) 90 % of control; (dose: 50.0 mg/kg/injection, schedule: Q01DX010 (ip), vehicle: saline) 90 % of control.

In the case of `c1csc(CSc2ncnc3nc[nH]c23)c1`, the T/C by setting is: under setting [1], 100 % of control; under setting [2], 100 % of control.

Turning to `ClCCCCCCCCCCc1ccccc1`, the T/C is, setting by setting: (dose: 50.0 mg/kg/injection, schedule: Q04DX003 (ip), vehicle: saline with Tween-80) 106 % of control; under setting [6], 109 % of control and 110 % of control; under setting [7], 108 % of control and 118 % of control.

With `O=Cc1ccc2c(c1)OCCOCCOCCOCCO2`, the T/C by setting is: under setting [4], 104 % of control; under setting [1], 121 % of control; under setting [2], 117 % of control.

In the case of `CCCCCCC(=O)/C=C/c1ccccc1OC`, the T/C is 90 % of control under setting [4], 99 % of control under setting [1] and 117 % of control under setting [2].

With `O=[N+]([O-])c1cccc(OCCOc2ccccc2)c1`, the T/C was 100 % of control under setting [6], 115 % of control under setting [7] and 105 % of control under setting [8].

As for `Cl`, the T/C runs as follows: (dose: 0.62 mg/kg/injection, schedule: Q01DX009 (ip), vehicle: water) 100 % of control; (dose: 1.25 mg/kg/injection, schedule: Q01DX009 (ip), vehicle: water) 90 % of control; (dose: 2.5 mg/kg/injection, schedule: Q01DX009 (ip), vehicle: water) 104 % of control; (dose: 5.0 mg/kg/injection, schedule: Q01DX009 (ip), vehicle: water) 95 % of control; (dose: 10.0 mg/kg/injection, schedule: Q01DX009 (ip), vehicle: water) 100 % of control; (dose: 20.0 mg/kg/injection, schedule: Q01DX009 (ip), vehicle: water) 100 % of control. Further, the T/C was 90 % of control (dose: 25.0 mg/kg/injection, schedule: Q01DX009 (ip), vehicle: water) and 104 % of control (dose: 50.0 mg/kg/injection, schedule: Q01DX009 (ip), vehicle: water).

Turning to `O=N[O-].[Co].[NH2-].[NH2-].[NH2-].[NH2-].[NH2-]`, the T/C is 95 % of control (dose: 12.5 mg/kg/injection, schedule: Q04DX003 (ip), vehicle: saline); 100 % of control (dose: 25.0 mg/kg/injection, schedule: Q04DX003 (ip), vehicle: saline); 100 % of control (dose: 50.0 mg/kg/injection, schedule: Q04DX003 (ip), vehicle: saline).

As for `CC#CCOCC(CCl)OC(=O)Nc1ccccc1` (centres undefined), the T/C is 100 % of control under setting [1]; 120 % of control under setting [6]; 112 % of control under setting [2]; 110 % of control under setting [7]; 108 % of control under setting [3]; 100 % of control under setting [8].

Take `COc1cccc2c1C(=O)c1c(O)c3c(c(O)c1C2=O)CC(O)(/C(C)=N\NC(=O)N/N=C(\C)C1(O)Cc2c(O)c4c(c(O)c2C(OC2CC(N)C(O)C(C)O2)C1)C(=O)c1c(OC)cccc1C4=O)CC3OC1CC(N)C(O)C(C)O1` (centres undefined): the T/C reads like this: (dose: 3.13 mg/kg/injection, schedule: Q04DX003 (ip), vehicle: water) 108 % of control; (dose: 6.25 mg/kg/injection, schedule: Q04DX003 (ip), vehicle: water) 117 % of control; (dose: 12.5 mg/kg/injection, schedule: Q04DX003 (ip), vehicle: water) 117 % of control; (dose: 50.0 mg/kg/injection, schedule: Q04DX003 (ip), vehicle: water) 153 % of control; (dose: 100.0 mg/kg/injection, schedule: Q04DX003 (ip), vehicle: water) 162 % of control.

For the compound `OC(O)C(F)(F)F`, the T/C (dose: 15.0 mg/kg/injection, schedule: Q04DX003 (ip), vehicle: saline with Tween-80) is 100 % of control; the T/C (dose: 30.0 mg/kg/injection, schedule: Q04DX003 (ip), vehicle: saline with Tween-80) was 100 % of control; the T/C (dose: 60.0 mg/kg/injection, schedule: Q04DX003 (ip), vehicle: saline with Tween-80) is 95 % of control; the T/C under setting [6] was 104 % of control; the T/C under setting [7] is 113 % of control; the T/C under setting [8] is 104 % of control.

On to `COC(=O)C1c2cc3c(cc2C(OC2OC(C)C(OC)C(C)(OC)C2OC)CC1(C)O)C(=O)c1c(O)cc2c(c1C3=O)OC1OC2(C)C(O)C([N+](C)(C)[O-])C1O` (centres undefined), for which the T/C was 150 % of control (dose: 3.13 mg/kg/injection, schedule: Q01DX010 (ip), vehicle: saline); 165 % of control (dose: 6.25 mg/kg/injection, schedule: Q01DX010 (ip), vehicle: saline); 95 % of control under setting [5].

As to `CC[N+](CC)(CC)CC[N+](CC)(CC)CC`, the T/C is 95 % of control (dose: 50.0 mg/kg/injection, schedule: Q01DX009 (ip), vehicle: saline); 96 % of control and 88 % of control (dose: 100.0 mg/kg/injection, schedule: Q01DX009 (ip), vehicle: saline); 95 % of control and 91 % of control (dose: 200.0 mg/kg/injection, schedule: Q01DX009 (ip), vehicle: saline).

As for `c1ccc2c(Nc3ccc(C4=NCCN4)cc3)nnc(Nc3ccc(C4=NCCN4)cc3)c2c1`, the T/C is, setting by setting: (dose: 19.0 mg/kg/injection, schedule: Q04DX003 (ip), vehicle: saline with Tween-80) 119 % of control; (dose: 29.0 mg/kg/injection, schedule: Q04DX003 (ip), vehicle: saline with Tween-80) 115 % of control; (dose: 44.0 mg/kg/injection, schedule: Q04DX003 (ip), vehicle: saline with Tween-80) 119 % of control; (dose: 66.0 mg/kg/injection, schedule: Q04DX003 (ip), vehicle: saline with Tween-80) 154 % of control and 168 % of control; under setting [6], 163 % of control; (dose: 150.0 mg/kg/injection, schedule: Q04DX003 (ip), vehicle: saline with Tween-80) 195 % of control.

For the compound `O=C1NC(c2cccc3ccccc23)Nc2ccc(Cl)cc21` (centres undefined), the T/C (dose: 50.0 mg/kg/injection, schedule: Q01DX009 (ip), vehicle: Klucel (hydroxypropylcellulose) (HPC)) was 160 % of control; the T/C (dose: 75.0 mg/kg/injection, schedule: Q01DX009 (ip), vehicle: Klucel (hydroxypropylcellulose) (HPC)) was 155 % of control; the T/C (dose: 100.0 mg/kg/injection, schedule: Q01DX009 (ip), vehicle: Klucel (hydroxypropylcellulose) (HPC)) was 111 % of control.
